How the values were obtained:
Type in all cases: in vivo
[1] = tested on: barnyardgrass (Echinochloa crus-galli); experiment: Test A greenhouse herbicide test, pre- and postemergence
Summary of the method: (§1)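 Seeds in loam–sand blend received a preemergence directed soil spray; plants at 2–10 cm, one- to two-leaf stage, received postemergence sprays. Compounds in a non-phytotoxic solvent with surfactant. After about 10 d in a greenhouse, injury rated visually versus untreated controls on a 0–100 scale (100 = complete control).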

corn (Zea mays) = experiment: as above; details: Postemergence
Summary of the method: as §1

[2] = tested on: foxtail, giant (giant foxtail, Setaria faberii); experiment: as above
Summary of the method: as §1

kochia (Kochia scoparia) = experiment: as above
Summary of the method: as §1

[3] = tested on: pigweed (Amaranthus retroflexus); experiment: as above
Summary of the method: as §1

[4] = tested on: ragweed (common ragweed, Ambrosia elatior); experiment: as above
Summary of the method: as §1

[5] = tested on: ryegrass, Italian (Italian ryegrass, Lolium multiflorum); experiment: as above
Summary of the method: as §1

[6] = tested on: wheat (Triticum aestivum); experiment: as above; details: Postemergence
Summary of the method: as §1

[7] = tested on: blackgrass (Alopecurus myosuroides); experiment: Test A greenhouse herbicide test, postemergence
Summary of the method: (§2)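 Pot-grown plants (loam soil/sand blend), 2–10 cm tall at the one- to two-leaf stage, received postemergence sprays of formulated test chemical. After about 10 d in the greenhouse, injury was rated visually against untreated controls on a 0 (no effect) to 100 (complete control) scale.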

[8] = tested on: galium (catchweed bedstraw, Galium aparine); experiment: Test A greenhouse herbicide test, postemergence
Summary of the method: as §2

[9] = tested on: barnyardgrass (Echinochloa crus-galli); experiment: Test B flooded paddy test; details: 250 g ai/ha, Flood; visual rating on scale of 0 to 100 where 0 is no effect and 100 is complete control; 13 to 15 d after treatment
Summary of the method: (§3)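 Plants grown to the 2-leaf stage. At treatment, pots were flooded to 3 cm above the soil, compound was applied directly to the paddy water, and that depth was held throughout. After 13 to 15 d in the greenhouse, response was rated visually against controls on a 0 (no effect) to 100 (complete control) scale.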

[10] = tested on: ducksalad (Heteranthera limosa); experiment: Test B flooded paddy test; details: 250 g ai/ha, Flood; visual rating on scale of 0 to 100 where 0 is no effect and 100 is complete control; 13 to 15 d after treatment
Summary of the method: as §3

rice (Oryza sativa) = experiment: Test B flooded paddy test; details: 250 g ai/ha, Flood; visual rating on scale of 0 to 100 where 0 is no effect and 100 is complete control; 13 to 15 d after treatment
Summary of the method: as §3

[11] = tested on: sedge, umbrella (small-flower umbrella sedge, Cyperus difformis); experiment: Test B flooded paddy test; details: 250 g ai/ha, Flood; visual rating on scale of 0 to 100 where 0 is no effect and 100 is complete control; 13 to 15 d after treatment
Summary of the method: as §3

[12] = Postemergence, 1000 g ai/ha, 0 to 100 scale, 0 is no effect, 100 is complete control
[13] = Preemergence, 1000 g ai/ha, 0 to 100 scale, 0 no effect, 100 complete control
[14] = 1000 g ai/ha, 0 to 100 scale, 0 is no effect, 100 is complete control
[15] = Postemergence, 125 g ai/ha, 0 to 100 scale, 0 no effect, 100 complete control
[16] = Postemergence, 500 g ai/ha, visual rating after approx. 10 d, 0 to 100 scale (0 no effect, 100 complete control)
[17] = Preemergence, 125 g ai/ha, visual injury rating, 0 to 100 scale (0 no effect, 100 complete control), approx. 10 d
[18] = Preemergence, 500 g ai/ha, 0 to 100 scale where 0 is no effect and 100 is complete control
[19] = 125 g ai/ha, 0 to 100 scale, 0 no effect, 100 complete control
[20] = 500 g ai/ha, visual rating after approx. 10 d, 0 to 100 scale (0 no effect, 100 complete control)
[21] = Preemergence, second run of lines under the 500 g ai/ha head, rate not given, 0 to 100 scale

Structure (SMILES) | Plant response rating, Barnyardgrass [9] | Plant response rating, Ducksalad [10] | Plant response rating, Rice (rice (Oryza sativa)) | Plant response rating, Sedge, Umbrella [11] | Plant response rating, Barnyardgrass [1, 15] | Plant response rating, Barnyardgrass [1, 16] | Plant response rating, Barnyardgrass [1, 18] | Plant response rating, Corn (corn (Zea mays); [19]) | Plant response rating, Corn (corn (Zea mays); [20]) | Plant response rating, Foxtail, Giant [2, 15] | Plant response rating, Foxtail, Giant [2, 16] | Plant response rating, Foxtail, Giant [2, 18] | Plant response rating, Kochia (kochia (Kochia scoparia); [15]) | Plant response rating, Kochia (kochia (Kochia scoparia); [16]) | Plant response rating, Kochia (kochia (Kochia scoparia); [18]) | Plant response rating, Pigweed [3, 15] | Plant response rating, Pigweed [3, 16] | Plant response rating, Pigweed [3, 18] | Plant response rating, Ragweed [4, 15] | Plant response rating, Ragweed [4, 16] | other results
Cc1nn(C)c(=O)c(-c2cccc3ccccc23)c1OCC(=O)c1ccccc1 [Compound 184] | 0 | 0 | 0 | 0 |  |  |  |  |  |  |  |  |  |  |  |  |  |  |  |  | Barnyardgrass plant response rating [1, 12]: 20; Plant response rating, Barnyardgrass [1, 13]: 10; Corn plant response rating (corn (Zea mays); [14]): 0; Foxtail, Giant plant response rating [2, 12]: 20; Plant response rating, Foxtail, Giant [2, 13]: 30; Kochia plant response rating (kochia (Kochia scoparia); [12]): 80; Plant response rating, Kochia (kochia (Kochia scoparia); [13]): 20; Pigweed plant response rating [3, 12]: 80; Plant response rating, Pigweed [3, 13]: 90; Ragweed plant response rating [4, 12]: 30; Plant response rating, Ragweed [4, 13]: 70; Ryegrass, Italian plant response rating [5, 12]: 80; Plant response rating, Ryegrass, Italian [5, 13]: 90; Wheat plant response rating [6, 14]: 0; Blackgrass plant response rating [7, 14]: 30; Galium plant response rating [8, 14]: 90
Cc1nn(C)c(=O)c(-c2ccc(Cl)c3ccccc23)c1OS(=O)(=O)N(C)C [Compound 185] | 0 | 0 | 0 | 0 | 10 | 30 | 50 | 0 | 30 | 0 | 20 | 30 | 70 | 100 | 10 | 50 | 90 | 60 | 10 | 50 | Plant response rating, Barnyardgrass [1, 17]: 0; Plant response rating, Foxtail, Giant [2, 17]: 0; Plant response rating, Kochia (kochia (Kochia scoparia); [17]): 0; Plant response rating, Pigweed [3, 17]: 20; Plant response rating, Ragweed [4, 17]: 0; Plant response rating, Ragweed [4, 18]: 40; Plant response rating, Ryegrass, Italian [5, 15]: 70; Plant response rating, Ryegrass, Italian [5, 16]: 80; Plant response rating, Ryegrass, Italian [5, 17]: 0; Plant response rating, Ryegrass, Italian [5, 18]: 40; Plant response rating, Wheat [6, 19]: 0; Plant response rating, Wheat [6, 20]: 0; Plant response rating, Blackgrass [7, 19]: 0; Plant response rating, Blackgrass [7, 20]: 20; Plant response rating, Galium [8, 19]: 70; Plant response rating, Galium [8, 20]: 90
Cc1nn(C)c(=O)c(-c2ccc(Cl)c3ccccc23)c1OP(C)(C)=O [Compound 187] | 0 | 0 | 20 | 0 | 30 | 80 | 90 | 0 | 30 | 50 | 80 | 70 | 90 | 100 | 100 | 70 | 90 | 100 | 100 | 100 | Plant response rating, Barnyardgrass [1, 21]: 70; Plant response rating, Foxtail, Giant [2, 21]: 20; Plant response rating, Kochia (kochia (Kochia scoparia); [21]): 60; Plant response rating, Pigweed [3, 21]: 90; Plant response rating, Ragweed [4, 18]: 80; Plant response rating, Ragweed [4, 21]: 70; Plant response rating, Ryegrass, Italian [5, 15]: 100; Plant response rating, Ryegrass, Italian [5, 16]: 100; Plant response rating, Ryegrass, Italian [5, 18]: 100; Plant response rating, Ryegrass, Italian [5, 21]: 100; Plant response rating, Wheat [6, 19]: 0; Plant response rating, Wheat [6, 20]: 30; Plant response rating, Blackgrass [7, 19]: 40; Plant response rating, Blackgrass [7, 20]: 70; Plant response rating, Galium [8, 19]: 90; Plant response rating, Galium [8, 20]: 100
Cc1cc(C)c2sc(C)c(-c3c(OCC#N)c(C)nn(C)c3=O)c2c1 [Compound 188] | 0 | 0 | 0 | 0 | 10 | 20 | 30 | 0 | 0 | 20 | 80 | 90 | 10 | 20 | 20 | 50 | 80 | 90 | 20 | 50 | Plant response rating, Barnyardgrass [1, 21]: 10; Plant response rating, Foxtail, Giant [2, 21]: 10; Plant response rating, Kochia (kochia (Kochia scoparia); [21]): 20; Plant response rating, Pigweed [3, 21]: 60; Plant response rating, Ragweed [4, 18]: 30; Plant response rating, Ragweed [4, 21]: 10; Plant response rating, Ryegrass, Italian [5, 15]: 20; Plant response rating, Ryegrass, Italian [5, 16]: 80; Plant response rating, Ryegrass, Italian [5, 18]: 80; Plant response rating, Ryegrass, Italian [5, 21]: 20; Plant response rating, Wheat [6, 19]: 0; Plant response rating, Wheat [6, 20]: 0; Plant response rating, Blackgrass [7, 19]: 10; Plant response rating, Blackgrass [7, 20]: 60; Plant response rating, Galium [8, 19]: 70; Plant response rating, Galium [8, 20]: 90

Source: patent US10597388B2, “Pyridazinone herbicides” (FMC CORPORATION, priority 2014, dated 2020)
